# According to patent US5853695A, “Method for palliation of pain in human bone cancer using therapeutic tin-117m compositions” (Brookhaven Science Associates LLC, priority 1996, dated 1998):
# Entries after “also recorded” stand apart in the source; their conditions may differ.
# Tests used:
# bone [1] = assay: External gamma camera / SPECT imaging of distribution in patients; format: in vivo, human
# Experimental: Also note that the dose of the Sn-117m compound is within the range of dosages found to palliate pain according to the method of the invention.
# The right panel depicts a three-dimensional reprojection image from SPECT (Single Photon Emission Computed Tomography) of a portion of the skeleton in the same patient.
# (§1) Sn-117m (Sn^4+) DTPA was administered through an inlying infusion line over a period of 5-10 minutes. […] A complete urine collection was obtained over 4 days and a blood specimen obtained on the fourth day. This enabled an estimate of bone uptake. Two imaging studies to monitor the Sn-117m distribution were obtained in the first week and repeat chemistries were obtained at one week. Complete blood counts were obtained weekly for at least two months and less frequently thereafter. A repeat Tc-99m MDP bone imaging study was performed at two months.
# bone [2] = assay: Bone uptake estimated from 4-day urine collection and blood specimen (% Total in Bone); format: in vivo, human; details: i.v. infusion
# Experimental: (§2) Fourteen patients were enrolled in a controlled clinical study, including 9 males and 5 females. The patients were administered an Sn-117m chelate complex-containing composition (described above in Example 3) sufficient to provide between 33 and 156 μCi/kg body weight. The protocol was approved by an institutional review board and the United States Food and Drug Administration (FDA). All subjects gave informed consent.
# as §1
# [3] = tested on: white blood cells and platelets; assay: Hemopoietic toxicity by complete blood counts (white blood cells, platelets); format: in vivo, human
# Experimental: (§3) Prior to initiation of therapy a Tc-99m MDP bone imaging study was obtained. Complete blood counts, including a differential and platelet count, electrolytes, and blood chemistries were obtained. No radiotherapy or chemotherapy had been administered to the patients in the prior month. Hormonal therapy was continued if the patient had been on hormonal therapy for more than three months without improvement in their clinical status.
# as §1
# As a result, a dosage of the Sn-117m chelate within the range found to be effective for consistent pain reduction can also be expected to be non-toxic to the patient.
# bone pain = assay: Palliation of bone pain in human subjects (clinical study, patient pain records); format: in vivo; design: key to Result (pain relief): -: No relief; +: Partial Relief; ++: Good Relief
# Experimental: as §2, §3, §1
# Patients maintained a record of pain levels and sites daily for two weeks and then twice a week for the next 6 weeks.
substance,measurement,setting,value
Sn-117m (Sn^4+) diethylenetriaminepentaacetic acid [Sn-117m (Sn^4+) DTPA],"distribution in bone, whole body and SPECT images","bone [1]; cancer patient with bone metastases, 4 days after 5 mCi, FIG. 2",patchy bright spots denote spread of cancer to bone
same,distribution in bone by gamma camera imaging compared with technetium-99m-MDP,"bone [1]; patient with prostate cancer spread to bone, 4 days after 10 mCi, FIG. 1",similarity of distribution of the two nuclides
same,% Total in Bone,"bone [2]; Patient 9, breast cancer, 8.41 mCi (0.142 mCi/kg)",72.1%
same,% Total in Bone,"bone [2]; Patient 10, breast cancer, 8.00 mCi (0.135 mCi/kg)",59.2%
same,% Total in Bone,"bone [2]; Patient 11, prostate cancer, 10.46 mCi (0.156 mCi/kg)",58.0%
same,% Total in Bone,"bone [2]; Patient 12, prostate cancer, 14.46 mCi (0.156 mCi/kg)",34.1%
same,% Total in Bone,"bone [2]; Patient 13, prostate cancer, 15.49 mCi (0.131 mCi/kg)",71.3%
same,% Total in Bone,"bone [2]; Patient 14, breast cancer, 7.54 mCi (0.151 mCi/kg)",69.2%
same,white blood cell (WBC) count or platelet count,"[3]; Patient 11, over three months following single administration (10.4 mCi)",no decrease
same,hemopoietic toxicity,[3]; all patients in the study,no patients in the study showed evidence of hemopoietic toxicity
same,Result (pain relief),"bone pain; Patient 4, prostate cancer, 61 kg, single 4.70 mCi (0.077 mCi/kg)",-
same,Result (pain relief),"bone pain; Patient 6, unknown primary cancer, 108 kg, single 8.41 mCi (0.078 mCi/kg)",+
same,Result (pain relief),"bone pain; Patient 7, prostate cancer, 59 kg, single 4.95 mCi (0.084 mCi/kg)",++
same,Result (pain relief),"bone pain; Patient 8, lung cancer, 61 kg, single 8.95 mCi (0.146 mCi/kg)",++
same,Result (pain relief),"bone pain; Patient 9, breast cancer, 59 kg, single 8.41 mCi (0.142 mCi/kg)",++
same,Result (pain relief),"bone pain; Patient 10, breast cancer, 59 kg, single 8.00 mCi (0.135 mCi/kg)",++
same,Result (pain relief),"bone pain; Patient 11, prostate cancer, 67 kg, single 10.46 mCi (0.156 mCi/kg)",+
same,Result (pain relief),"bone pain; Patient 12, prostate cancer, 93 kg, single 14.46 mCi (0.156 mCi/kg)",++
same,Result (pain relief),"bone pain; Patient 13, prostate cancer, 118 kg, single 15.49 mCi (0.131 mCi/kg)",++
same,Result (pain relief),"bone pain; Patient 14, breast cancer, 50 kg, single 7.54 mCi (0.151 mCi/kg)",+
same,"response to treatment, lower dose",bone pain; patients given a lower dose,"variable response to the treatment, in one case indicating that no relief was had"
same,"relief of pain, higher dose","bone pain; seven patients who received more than about 9 mCi/70 kg (~129 μCi/kg), listed as Sn-117m chelates",all experienced relief of pain; also recorded: five experienced excellent relief; also recorded: two experienced partial relief
same,"relief or palliation of pain, overall","bone pain; single administrations, 33 to 156 μCi/kg, fourteen patients",dose-dependent relief or palliation of pain
